Values of other authors in patent publication US20040024041A1, “Dermal therapeutic system containing non-steroidal antiphlogistics with selective cox-2 inhibition” (priority 2000, published 2004).

Assays:
[1] = patients receiving rofecoxib therapy vs patients receiving other non-steroidal anti-inflammatory drugs as comparison substance

CS(=O)(=O)c1ccc(C2=C(c3ccccc3)C(=O)OC2)cc1 [rofecoxib, 3-phenyl-4-[4-methylsulfonylphenyl]-2-(5H)furanone]
perforations, ulcers and bleeds in the upper gastrointestinal tract [1]: significantly fewer
percentage of patients with endoscopically detectable gastroduodenal ulcers (after 12 weeks of treatment, rofecoxib 25 or 50 mg/day vs placebo): comparable percentage
cumulative incidence of gastroduodenal ulcers (over 12 and 24 weeks, respectively, vs ibuprofen 2 400 mg/day): significantly less
